In patent US9693556B2, “Herbicidal pyridazinone derivatives” (SYNGENTA LIMITED, priority 2011, dated 2017):

Tests used:
Assay type in all cases: in vivo
[1] = test system: Alopecurus myosuroides (ALOMY); experiment: Pre-emergence herbicidal glasshouse test on Alopecurus myosuroides; conditions: pre-emergence; 1000 g/h; evaluated after 13 days
How it was run: (§1)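 Plants sprayed 1 day (pre-emergence) or 8 days (post-emergence) after sowing with compound at 1000 g/h in acetone/water 50:50 with 0.5% Tween 20; glasshouse 24/16° C, 14 h light, 65% humidity. Damage assessed after 13 days, scored 1–5 (5 = 80-100%, 1 = 0-19%).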

Setaria faberi (SETFA) [2] = experiment: Post-emergence herbicidal glasshouse test on Setaria faberi; conditions: post-emergence; 1000 g/h; evaluated after 13 days
How it was run: as §1

[3] = test system: Echinochloa crus-galli (ECHCG); experiment: Pre-emergence herbicidal glasshouse test on Echinochloa crus-galli; conditions: pre-emergence; 1000 g/h; evaluated after 13 days
How it was run: as §1

[4] = test system: Alopecurus myosuroides (ALOMY); experiment: Post-emergence herbicidal glasshouse test on Alopecurus myosuroides; conditions: post-emergence; 1000 g/h; evaluated after 13 days
How it was run: as §1

[5] = test system: Amaranthus retoflexus (AMARE); experiment: Post-emergence herbicidal glasshouse test on Amaranthus retoflexus; conditions: post-emergence; 1000 g/h; evaluated after 13 days
How it was run: as §1

[6] = test system: Amaranthus retoflexus (AMARE); experiment: Pre-emergence herbicidal glasshouse test on Amaranthus retoflexus; conditions: pre-emergence; 1000 g/h; evaluated after 13 days
How it was run: as §1

[7] = test system: Echinochloa crus-galli (ECHCG); experiment: Post-emergence herbicidal glasshouse test on Echinochloa crus-galli; conditions: post-emergence; 1000 g/h; evaluated after 13 days
How it was run: as §1

[8] = test system: Ipomoea hederacea (IPOHE); experiment: Pre-emergence herbicidal glasshouse test on Ipomoea hederacea; conditions: pre-emergence; 1000 g/h; evaluated after 13 days
How it was run: as §1

Solanum nigrum (SOLNI) [9] = experiment: Pre-emergence herbicidal glasshouse test on Solanum nigrum; conditions: pre-emergence; 1000 g/h; evaluated after 13 days
How it was run: as §1

[10] = test system: Ipomoea hederacea (IPOHE); experiment: Post-emergence herbicidal glasshouse test on Ipomoea hederacea; conditions: post-emergence; 1000 g/h; evaluated after 13 days
How it was run: as §1

Setaria faberi (SETFA) [11] = experiment: Pre-emergence herbicidal glasshouse test on Setaria faberi; conditions: pre-emergence; 1000 g/h; evaluated after 13 days
How it was run: as §1

Solanum nigrum (SOLNI) [12] = experiment: Post-emergence herbicidal glasshouse test on Solanum nigrum; conditions: post-emergence; 1000 g/h; evaluated after 13 days
How it was run: as §1

COc1nn(C)c(=O)c(O)c1-c1ccc(C(F)(F)F)cc1S(C)(=O)=O [Compound 2.041]
5 (5=80-100% damage): PRE Application ALOMY herbicidal damage (five point scale) [1] | POST Application SETFA herbicidal damage (five point scale) (Setaria faberi (SETFA) [2]) | PRE Application ECHCG herbicidal damage (five point scale) [3] | POST Application ALOMY herbicidal damage (five point scale) [4] | POST Application AMARE herbicidal damage (five point scale) [5] | PRE Application AMARE herbicidal damage (five point scale) [6] | POST Application ECHCG herbicidal damage (five point scale) [7] | PRE Application IPOHE herbicidal damage (five point scale) [8] | PRE Application SOLNI herbicidal damage (five point scale) (Solanum nigrum (SOLNI) [9]) | POST Application IPOHE herbicidal damage (five point scale) [10] | PRE Application SETFA herbicidal damage (five point scale) (Setaria faberi (SETFA) [11]) | POST Application SOLNI herbicidal damage (five point scale) (Solanum nigrum (SOLNI) [12])

CC(C)n1ncc(-c2ccc(C(F)(F)F)cc2S(C)(=O)=O)c(O)c1=O [Compound 1.013]
5 (5=80-100% damage): PRE Application ALOMY herbicidal damage (five point scale) [1] | POST Application SETFA herbicidal damage (five point scale) (Setaria faberi (SETFA) [2]) | PRE Application ECHCG herbicidal damage (five point scale) [3] | POST Application ALOMY herbicidal damage (five point scale) [4] | POST Application AMARE herbicidal damage (five point scale) [5] | PRE Application AMARE herbicidal damage (five point scale) [6] | POST Application ECHCG herbicidal damage (five point scale) [7] | PRE Application SOLNI herbicidal damage (five point scale) (Solanum nigrum (SOLNI) [9]) | POST Application IPOHE herbicidal damage (five point scale) [10] | PRE Application SETFA herbicidal damage (five point scale) (Setaria faberi (SETFA) [11]) | POST Application SOLNI herbicidal damage (five point scale) (Solanum nigrum (SOLNI) [12])
4 (4=60-79% damage): PRE Application IPOHE herbicidal damage (five point scale) [8]

CC(C)(C)n1ncc(-c2c(Cl)cccc2Cl)c(O)c1=O [Compound 1.133]
3 (3=40-59% damage): POST Application ECHCG herbicidal damage (five point scale) [7]
1 (1=0-19% damage): PRE Application ALOMY herbicidal damage (five point scale) [1] | POST Application SETFA herbicidal damage (five point scale) (Setaria faberi (SETFA) [2]) | PRE Application ECHCG herbicidal damage (five point scale) [3] | POST Application ALOMY herbicidal damage (five point scale) [4] | POST Application AMARE herbicidal damage (five point scale) [5] | PRE Application AMARE herbicidal damage (five point scale) [6] | PRE Application IPOHE herbicidal damage (five point scale) [8] | PRE Application SOLNI herbicidal damage (five point scale) (Solanum nigrum (SOLNI) [9]) | PRE Application SETFA herbicidal damage (five point scale) (Setaria faberi (SETFA) [11])
2 (2=20-39% damage): POST Application IPOHE herbicidal damage (five point scale) [10] | POST Application SOLNI herbicidal damage (five point scale) (Solanum nigrum (SOLNI) [12])

Cn1ncc(-c2ccc(-c3ccccc3)cc2S(C)(=O)=O)c(O)c1=O [Compound 2.033]
3 (3=40-59% damage): POST Application SETFA herbicidal damage (five point scale) (Setaria faberi (SETFA) [2])
4 (4=60-79% damage): PRE Application ALOMY herbicidal damage (five point scale) [1] | PRE Application ECHCG herbicidal damage (five point scale) [3]
5 (5=80-100% damage): POST Application ALOMY herbicidal damage (five point scale) [4] | POST Application AMARE herbicidal damage (five point scale) [5] | PRE Application AMARE herbicidal damage (five point scale) [6] | POST Application ECHCG herbicidal damage (five point scale) [7] | PRE Application SOLNI herbicidal damage (five point scale) (Solanum nigrum (SOLNI) [9]) | POST Application IPOHE herbicidal damage (five point scale) [10] | POST Application SOLNI herbicidal damage (five point scale) (Solanum nigrum (SOLNI) [12])
1 (1=0-19% damage): PRE Application IPOHE herbicidal damage (five point scale) [8]
2 (2=20-39% damage): PRE Application SETFA herbicidal damage (five point scale) (Setaria faberi (SETFA) [11])

C=C(C)c1nn(C)c(=O)c(O)c1-c1ccc(S(C)(=O)=O)c(C2=NOCC2)c1C [Compound 2.023]
5 (5=80-100% damage): PRE Application ALOMY herbicidal damage (five point scale) [1] | POST Application SETFA herbicidal damage (five point scale) (Setaria faberi (SETFA) [2]) | PRE Application ECHCG herbicidal damage (five point scale) [3] | POST Application ALOMY herbicidal damage (five point scale) [4] | POST Application AMARE herbicidal damage (five point scale) [5] | PRE Application AMARE herbicidal damage (five point scale) [6] | POST Application ECHCG herbicidal damage (five point scale) [7] | PRE Application SOLNI herbicidal damage (five point scale) (Solanum nigrum (SOLNI) [9]) | POST Application IPOHE herbicidal damage (five point scale) [10] | POST Application SOLNI herbicidal damage (five point scale) (Solanum nigrum (SOLNI) [12])
4 (4=60-79% damage): PRE Application IPOHE herbicidal damage (five point scale) [8]
1 (1=0-19% damage): PRE Application SETFA herbicidal damage (five point scale) (Setaria faberi (SETFA) [11])

Cn1nc([N+](=O)[O-])c(-c2ccc(C(F)(F)F)cc2S(C)(=O)=O)c(O)c1=O [Compound 2.022]
4 (4=60-79% damage): PRE Application SETFA herbicidal damage (five point scale) (Setaria faberi (SETFA) [11])
5 (5=80-100% damage): PRE Application ALOMY herbicidal damage (five point scale) [1] | POST Application SETFA herbicidal damage (five point scale) (Setaria faberi (SETFA) [2]) | PRE Application ECHCG herbicidal damage (five point scale) [3] | POST Application ALOMY herbicidal damage (five point scale) [4] | POST Application AMARE herbicidal damage (five point scale) [5] | PRE Application AMARE herbicidal damage (five point scale) [6] | POST Application ECHCG herbicidal damage (five point scale) [7] | PRE Application IPOHE herbicidal damage (five point scale) [8] | PRE Application SOLNI herbicidal damage (five point scale) (Solanum nigrum (SOLNI) [9]) | POST Application IPOHE herbicidal damage (five point scale) [10] | POST Application SOLNI herbicidal damage (five point scale) (Solanum nigrum (SOLNI) [12])

Cn1ncc(-c2ccc(SCc3ccccc3)cc2S(C)(=O)=O)c(O)c1=O [Compound 2.035]
3 (3=40-59% damage): PRE Application ALOMY herbicidal damage (five point scale) [1] | PRE Application ECHCG herbicidal damage (five point scale) [3] | PRE Application IPOHE herbicidal damage (five point scale) [8]
5 (5=80-100% damage): POST Application SETFA herbicidal damage (five point scale) (Setaria faberi (SETFA) [2]) | POST Application AMARE herbicidal damage (five point scale) [5] | PRE Application AMARE herbicidal damage (five point scale) [6] | POST Application ECHCG herbicidal damage (five point scale) [7] | PRE Application SOLNI herbicidal damage (five point scale) (Solanum nigrum (SOLNI) [9]) | POST Application IPOHE herbicidal damage (five point scale) [10] | POST Application SOLNI herbicidal damage (five point scale) (Solanum nigrum (SOLNI) [12])
4 (4=60-79% damage): POST Application ALOMY herbicidal damage (five point scale) [4]
2 (2=20-39% damage): PRE Application SETFA herbicidal damage (five point scale) (Setaria faberi (SETFA) [11])

Cn1ncc(-c2ccc(OCC(F)(F)F)cc2S(C)(=O)=O)c(O)c1=O [Compound 2.030]
4 (4=60-79% damage): PRE Application IPOHE herbicidal damage (five point scale) [8]
5 (5=80-100% damage): PRE Application ALOMY herbicidal damage (five point scale) [1] | POST Application SETFA herbicidal damage (five point scale) (Setaria faberi (SETFA) [2]) | PRE Application ECHCG herbicidal damage (five point scale) [3] | POST Application ALOMY herbicidal damage (five point scale) [4] | POST Application AMARE herbicidal damage (five point scale) [5] | PRE Application AMARE herbicidal damage (five point scale) [6] | POST Application ECHCG herbicidal damage (five point scale) [7] | PRE Application SOLNI herbicidal damage (five point scale) (Solanum nigrum (SOLNI) [9]) | POST Application IPOHE herbicidal damage (five point scale) [10] | PRE Application SETFA herbicidal damage (five point scale) (Setaria faberi (SETFA) [11]) | POST Application SOLNI herbicidal damage (five point scale) (Solanum nigrum (SOLNI) [12])

COCn1ncc(-c2ccccc2S(C)(=O)=O)c(O)c1=O [Compound 1.144]
4 (4=60-79% damage): PRE Application IPOHE herbicidal damage (five point scale) [8] | PRE Application SETFA herbicidal damage (five point scale) (Setaria faberi (SETFA) [11])
5 (5=80-100% damage): PRE Application ALOMY herbicidal damage (five point scale) [1] | POST Application SETFA herbicidal damage (five point scale) (Setaria faberi (SETFA) [2]) | PRE Application ECHCG herbicidal damage (five point scale) [3] | POST Application ALOMY herbicidal damage (five point scale) [4] | POST Application AMARE herbicidal damage (five point scale) [5] | PRE Application AMARE herbicidal damage (five point scale) [6] | POST Application ECHCG herbicidal damage (five point scale) [7] | PRE Application SOLNI herbicidal damage (five point scale) (Solanum nigrum (SOLNI) [9]) | POST Application IPOHE herbicidal damage (five point scale) [10] | POST Application SOLNI herbicidal damage (five point scale) (Solanum nigrum (SOLNI) [12])

Cn1ncc(-c2ccc(Br)cc2S(C)(=O)=O)c(O)c1=O [Compound 1.081]
2 (2=20-39% damage): PRE Application IPOHE herbicidal damage (five point scale) [8]
5 (5=80-100% damage): PRE Application ALOMY herbicidal damage (five point scale) [1] | POST Application SETFA herbicidal damage (five point scale) (Setaria faberi (SETFA) [2]) | PRE Application ECHCG herbicidal damage (five point scale) [3] | POST Application ALOMY herbicidal damage (five point scale) [4] | POST Application AMARE herbicidal damage (five point scale) [5] | PRE Application AMARE herbicidal damage (five point scale) [6] | POST Application ECHCG herbicidal damage (five point scale) [7] | PRE Application SOLNI herbicidal damage (five point scale) (Solanum nigrum (SOLNI) [9]) | POST Application IPOHE herbicidal damage (five point scale) [10] | PRE Application SETFA herbicidal damage (five point scale) (Setaria faberi (SETFA) [11]) | POST Application SOLNI herbicidal damage (five point scale) (Solanum nigrum (SOLNI) [12])
